Measured values taken from patent US9586963B2 (GENFIT, priority 2011, dated 2017).

Experiments:
[1] = molecular target: T1, Rev-Erb alpha (Homo sapiens, UniProt P20393); test: M2H (mammalian two-hybrid) cellular activation assay of Rev-Erb alpha; type: cell-based; conditions: M2H assay, HEK293 cells; for EC50: Gal4-Rev-Erb alpha / VP16-NCoR, luciferase reporter; for Emax: relative to DMSO, at the tested dose, read-out: TOP activation
T1 sequence (P20393 284-614 limits assumed): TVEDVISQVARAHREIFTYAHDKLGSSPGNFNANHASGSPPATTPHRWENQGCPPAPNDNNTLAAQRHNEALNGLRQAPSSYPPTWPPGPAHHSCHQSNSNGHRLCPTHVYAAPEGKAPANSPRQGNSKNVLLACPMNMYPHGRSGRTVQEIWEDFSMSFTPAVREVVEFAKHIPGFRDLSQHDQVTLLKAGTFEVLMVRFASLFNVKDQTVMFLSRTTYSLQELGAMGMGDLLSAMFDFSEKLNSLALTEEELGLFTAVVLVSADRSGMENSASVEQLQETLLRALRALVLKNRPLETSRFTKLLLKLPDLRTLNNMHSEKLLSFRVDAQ
How it was run: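 Six-point dose-response, 18 h, 37 °C, serum-free, in HEK293 cells carrying a Gal4-RE luciferase reporter with Gal4-Rev-Erb alpha or beta plus VP16-NCoR (corepressor interaction readout). EC50 and TOP activation (%) derived from luminescence across four experiments.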

| SMILES | melting point | EC50 [1] | Emax [1] |
| --- | --- | --- | --- |
| FC(F)(F)c1ccc(-c2ccc(Cl)nc2)c(Oc2ccc3nnc(Cl)n3n2)c1 [Cpd.4-101, 3-chloro-6-(2-(6-chloropyridin-3-yl)-5-(trifluoromethyl)phenoxy)-[1,2,4]triazolo[4,3-b]pyridazine] | 198 to 200 °C | 0.1 to 1 µM | – |
| FC(F)(F)c1ccc(-c2cccnc2)c(Oc2ccc3nnc(C(F)(F)F)n3n2)c1 [Cpd.4-126, 3-(trifluoromethyl)-6-(2-(pyridin-3-yl)-5-(trifluoromethyl)phenoxy)-[1,2,4]triazolo[4,3-b]pyridazine] | 69 to 70 °C | 1 to 6 µM | – |
| Cc1cc2nncn2nc1Oc1cc(C(F)(F)F)ccc1-c1cncnc1 [Cpd.5-44, 7-methyl-6-(2-(pyrimidin-5-yl)-5-(trifluoromethyl)phenoxy)-[1,2,4]triazolo[4,3-b]pyridazine] | 179 to 181 °C | > 6 µM | > 130% |
| CC(C)c1cc2nnc(Cl)n2nc1Oc1cc(C(F)(F)F)ccc1-c1ccccc1 [Cpd.5-11, 3-chloro-7-isopropyl-6-(4-trifluoromethyl-biphenyl-2-yloxy)-[1,2,4]triazolo[4,3-b]pyridazine] | 55 to 58 °C | 0.1 to 1 µM | – |
| Cc1ccc(-c2ccccc2Oc2ccc3nnc(Cl)n3n2)cc1 [Cpd.4-23, 6-(4′-methyl-biphenyl-2-yloxy)-3-chloro-[1,2,4]triazolo[4,3-b]pyridazine] | 166.9 to 173.4 °C | 0.1 to 1 µM | – |
| FC(F)(F)c1ccc(-c2ccccc2Oc2ccc3nnc(Cl)n3n2)cc1 [Cpd.4-24, 6-(4′-trifluoromethyl-biphenyl-2-yloxy)-3-chloro-[1,2,4]triazolo[4,3-b]pyridazine] | 185.8 °C | 0.1 to 1 µM | – |
| COc1ccc(C(=O)c2ccccc2)c(Oc2ccc3nnc(Cl)n3n2)c1 [Cpd.4-144, 3-chloro-6-(2-benzoyl-5-methoxy-phenoxy)-[1,2,4]triazolo[4,3-b]pyridazine] | 175 to 176 °C | 0.1 to 1 µM | – |
| CC(C)Nc1ccc(-c2ccccc2)c(Oc2ccc3nnc(Cl)n3n2)c1 [Cpd.4-189, 3-chloro-6-(4-isopropylamino-biphenyl-2-yloxy)-[1,2,4]triazolo[4,3-b]pyridazine] | 170 to 175 °C | < 0.1 µM | – |
| FC(F)(F)c1ccc(-c2cncnc2)c(Oc2nn3c(C(F)(F)F)nnc3c3ccccc23)c1 [Cpd.5-62, 6-(2-(pyrimidin-5-yl)-5-(trifluoromethyl)phenoxy)-3-(trifluoromethyl)-[1,2,4]triazolo[3,4-a]phthalazine] | 197 to 200 °C | 1 to 6 µM | – |
| FC(F)(F)c1ccc(-c2cncnc2)c(Oc2nn3cnnc3c3ccccc23)c1 [Cpd.5-64, 6-(2-(pyrimidin-5-yl)-5-(trifluoromethyl)phenoxy)-[1,2,4]triazolo[3,4-a]phthalazine] | 220 to 230 °C | 1 to 6 µM | – |
| Clc1nnc2ccc(Oc3ccc(CNC4CC4)cc3-c3ccccc3)nn12 [Cpd.4-161, 3-chloro-6-(5-(cyclopropylaminomethyl)biphenyl-2-yloxy)-[1,2,4]triazolo[4,3-b]pyridazine] | 62.2 to 64.9 °C | 1 to 6 µM | – |
| Cc1ccc2c(Oc3cc(C(F)(F)F)ccc3-c3ccccc3)nn3c(Cl)nnc3c2c1 [Cpd.5-9, 3-chloro-6-(4-trifluoromethyl-biphenyl-2-yloxy)-9-methyl-[1,2,4]triazolo[3,4-a]phthalazine] | 229 to 231 °C | 0.1 to 1 µM | – |
| Cc1cccc(-c2cc(F)ccc2Oc2ccc3nnc(Cl)n3n2)c1 [Cpd.4-135, 3-chloro-6-(5-fluoro-3′-methylbiphenyl-2-yloxy)-[1,2,4]triazolo[4,3-b]pyridazine] | 94.5 to 95.1 °C | 0.1 to 1 µM | – |
| Clc1nnc2ccc(Oc3cc(CN4CCOCC4)ccc3-c3ccccc3)nn12 [Cpd.4-64, 3-chloro-6-(4-morpholinomethyl-biphenyl-2-yloxy)-[1,2,4]triazolo[4,3-b]pyridazine] | 162 to 163 °C | 1 to 6 µM | – |
| CN(C)Cc1ccc(-c2ccccc2)c(Oc2ccc3nnc(Cl)n3n2)c1 [Cpd.4-41, 3-chloro-6-(4-N,N-dimethylaminomethyl-biphenyl-2-yloxy)-[1,2,4]triazolo[4,3-b]pyridazine] | 141 to 144 °C | 1 to 6 µM | – |
| FC(F)(F)c1ccc(-c2ccccc2)c(Oc2ccc3nnc(C(F)(F)F)n3n2)c1 [Cpd.4-38, 6-(4-trifluoromethyl-biphenyl-2-yloxy)-3-(trifluoromethyl)-[1,2,4]triazolo[4,3-b]pyridazine] | 150 °C | 0.1 to 1 µM | – |

| SMILES | melting point | EC50 [1] | Emax [1] |
| --- | --- | --- | --- |
| Clc1nnc2ccc(Oc3cc(CN4CCCCC4)ccc3-c3ccccc3)nn12 [Cpd.4-183, 3-chloro-6-(4-piperidin-1-ylmethylbiphenyl-2-yloxy)-[1,2,4]triazolo[4,3-b]pyridazine] | 163 to 164 °C | 1 to 6 µM | – |
| CC(C)CNc1ccc(-c2ccccc2)c(Oc2ccc3nnc(Cl)n3n2)c1 [Cpd.4-51, 3-chloro-6-(4-N-2-methylpropylamino-biphenyl-2-yloxy)-[1,2,4]triazolo[4,3-b]pyridazine] | 124 to 128 °C | 0.1 to 1 µM | – |
| Clc1nnc2ccc(Oc3ccc(CN4CCCCC4)cc3-c3ccccc3)nn12 [Cpd.4-156, 3-chloro-6-(5-piperidin-1-ylmethylbiphenyl-2-yloxy)-[1,2,4]triazolo[4,3-b]pyridazine] | 70 to 70.4 °C | > 6 µM | > 130% |
| Cc1cccc(-c2ccccc2Oc2ccc3nnc(Cl)n3n2)c1 [Cpd.4-132, 3-chloro-6-(3′-methylbiphenyl-2-yloxy)-[1,2,4]triazolo[4,3-b]pyridazine] | 51 °C | 0.1 to 1 µM | – |
| CCCN(CCC)c1ccc(Oc2ccc3nnc(Cl)n3n2)c(-c2ccccc2)c1 [Cpd.4-53, 3-chloro-6-(5-dipropylamino-biphenyl-2-yloxy)-[1,2,4]triazolo[4,3-b]pyridazine] | 106 to 109 °C | 0.1 to 1 µM | – |
| CNc1ccc(Oc2ccc3nnc(Cl)n3n2)c(-c2ccccc2)c1 [Cpd.4-47, 3-chloro-6-(5-methylamino-biphenyl-2-yloxy)-[1,2,4]triazolo[4,3-b]pyridazine] | 157 to 158 °C | < 0.1 µM | – |
| CCc1nnc2cc(C)c(Oc3cc(C(F)(F)F)ccc3-c3cccnc3)nn12 [Cpd.5-49, 3-ethyl-7-methyl-6-(2-(pyridin-3-yl)-5-(trifluoromethyl)phenoxy)-[1,2,4]triazolo[4,3-b]pyridazine] | 174 to 176 °C | 1 to 6 µM | – |
| Cc1cc(Oc2cc(C(F)(F)F)ccc2-c2cccnc2)nn2c(C(F)(F)F)nnc12 [Cpd.5-32, 8-methyl-6-(2-(pyridin-3-yl)-5-(trifluoromethyl)phenoxy)-3-(trifluoromethyl)-[1,2,4]triazolo[4,3-b]pyridazine] | 151 to 153 °C | > 6 µM | > 130% |
| Cc1cc2nnc(Cl)n2nc1Oc1ccc(Cl)cc1-c1cncnc1 [Cpd.5-59, 3-chloro-6-(4-chloro-2-(pyrimidin-5-yl)phenoxy)-7-methyl-[1,2,4]triazolo[4,3-b]pyridazine] | 224 to 226 °C | > 6 µM | > 130% |
| Fc1ccc2c(c1)c(Oc1cc(C(F)(F)F)ccc1-c1ccccc1)nn1c(Cl)nnc21 [Cpd.5-3, 3-chloro-6-(4-trifluoromethyl-biphenyl-2-yloxy)-8-fluoro-[1,2,4]triazolo[3,4-a]phthalazine] | 213 to 215 °C | 0.1 to 1 µM | – |
| Fc1ccc(Oc2ccc3nnc(Cl)n3n2)c(-c2ccc(F)c(F)c2)c1 [Cpd.4-115, 3-chloro-6-(5,3′,4′-trifluorobiphenyl-2-yloxy)-[1,2,4]triazolo[4,3-b]pyridazine] | 147.8 °C | 0.1 to 1 µM | – |
| CN(Cc1ccccc1)Cc1ccc(-c2ccccc2)c(Oc2ccc3nnc(Cl)n3n2)c1 [Cpd.4-60, 3-chloro-6-(4-N-methyl-N-benzylaminomethyl-biphenyl-2-yloxy)-[1,2,4]triazolo[4,3-b]pyridazine] | 119 to 122 °C | 0.1 to 1 µM | – |
| COc1cccc(-c2cccc(Oc3ccc4nnc(Cl)n4n3)c2)c1 [Cpd.3-14, 3-chloro-6-(3′-methoxybiphenyl-3-yloxy)-[1,2,4]triazolo[4,3-b]pyridazine] | 91.46 °C | 1 to 6 µM | – |
| COc1cccc(-c2cc(F)ccc2Oc2ccc3nnc(C(F)(F)F)n3n2)c1 [Cpd.4-149, 3-(trifluoromethyl)-6-(5-fluoro-3′-methoxybiphenyl-2-yloxy)-[1,2,4]triazolo[4,3-b]pyridazine] | 73.7 to 76.9 °C | 1 to 6 µM | – |
| FC(F)(F)c1ccc(-c2cccnc2)c(Oc2nn3c(Cl)nnc3c3ccccc23)c1 [Cpd.5-15, 3-chloro-6-(2-(pyridin-3-yl)-5-(trifluoromethyl)phenoxy)-[1,2,4]triazolo[3,4-a]phthalazine] | 175 to 177 °C | < 0.1 µM | – |
| COc1cccc(-c2ccc(C(F)(F)F)cc2Oc2ccc3nnc(C(F)(F)F)n3n2)c1 [Cpd.4-137, 3-(trifluoromethyl)-6-(3′-methoxy-4-(trifluoromethyl)biphenyl-2-yloxy)-[1,2,4]triazolo[4,3-b]pyridazine] | 102.5 °C | 0.1 to 1 µM | – |
